For assay [1], the target named is T1, Human glucocorticoid receptors (Homo sapiens, UniProt P04150).
T1 construct: made in house; host or cells: Sf9 insect cells, recombinant baculovirus (BAC-TO-BAC)
T1 sequence (P04150 1-777): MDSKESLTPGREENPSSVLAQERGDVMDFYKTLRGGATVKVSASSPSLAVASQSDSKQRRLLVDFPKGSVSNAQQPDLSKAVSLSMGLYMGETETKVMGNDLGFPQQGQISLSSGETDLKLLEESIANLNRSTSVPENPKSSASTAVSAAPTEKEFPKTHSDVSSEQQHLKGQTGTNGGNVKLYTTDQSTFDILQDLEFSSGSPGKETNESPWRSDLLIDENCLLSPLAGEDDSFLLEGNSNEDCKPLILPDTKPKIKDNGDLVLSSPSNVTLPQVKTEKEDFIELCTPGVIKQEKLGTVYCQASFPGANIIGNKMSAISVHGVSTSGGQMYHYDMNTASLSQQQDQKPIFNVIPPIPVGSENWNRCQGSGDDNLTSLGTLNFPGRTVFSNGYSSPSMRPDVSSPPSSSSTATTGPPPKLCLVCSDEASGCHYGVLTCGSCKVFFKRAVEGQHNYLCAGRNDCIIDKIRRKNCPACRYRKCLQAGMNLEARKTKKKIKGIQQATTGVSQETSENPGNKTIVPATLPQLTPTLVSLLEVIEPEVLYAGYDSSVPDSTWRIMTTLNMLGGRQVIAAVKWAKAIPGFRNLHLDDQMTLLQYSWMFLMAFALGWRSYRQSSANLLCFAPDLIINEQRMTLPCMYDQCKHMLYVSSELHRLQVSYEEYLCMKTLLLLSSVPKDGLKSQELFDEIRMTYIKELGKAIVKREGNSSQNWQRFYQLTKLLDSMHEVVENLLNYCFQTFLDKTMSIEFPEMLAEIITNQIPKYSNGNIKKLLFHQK
Nature of the assay: Radioligand filter binding assay, displacement of 3(H)-dexamethasone from human glucocorticoid receptor cytosol. The settings on record: 1.7 μM test compound, inhibition of 3(H)-dex binding to hGR; for inhibition at 1.7 µM: read-out: GR BINDING (% Inhibition @ 1.7 μM).

The target in assay [2] is T2, progesterone receptor (PR) (Homo sapiens, UniProt P06401).
T2 sequence (P06401 1-933): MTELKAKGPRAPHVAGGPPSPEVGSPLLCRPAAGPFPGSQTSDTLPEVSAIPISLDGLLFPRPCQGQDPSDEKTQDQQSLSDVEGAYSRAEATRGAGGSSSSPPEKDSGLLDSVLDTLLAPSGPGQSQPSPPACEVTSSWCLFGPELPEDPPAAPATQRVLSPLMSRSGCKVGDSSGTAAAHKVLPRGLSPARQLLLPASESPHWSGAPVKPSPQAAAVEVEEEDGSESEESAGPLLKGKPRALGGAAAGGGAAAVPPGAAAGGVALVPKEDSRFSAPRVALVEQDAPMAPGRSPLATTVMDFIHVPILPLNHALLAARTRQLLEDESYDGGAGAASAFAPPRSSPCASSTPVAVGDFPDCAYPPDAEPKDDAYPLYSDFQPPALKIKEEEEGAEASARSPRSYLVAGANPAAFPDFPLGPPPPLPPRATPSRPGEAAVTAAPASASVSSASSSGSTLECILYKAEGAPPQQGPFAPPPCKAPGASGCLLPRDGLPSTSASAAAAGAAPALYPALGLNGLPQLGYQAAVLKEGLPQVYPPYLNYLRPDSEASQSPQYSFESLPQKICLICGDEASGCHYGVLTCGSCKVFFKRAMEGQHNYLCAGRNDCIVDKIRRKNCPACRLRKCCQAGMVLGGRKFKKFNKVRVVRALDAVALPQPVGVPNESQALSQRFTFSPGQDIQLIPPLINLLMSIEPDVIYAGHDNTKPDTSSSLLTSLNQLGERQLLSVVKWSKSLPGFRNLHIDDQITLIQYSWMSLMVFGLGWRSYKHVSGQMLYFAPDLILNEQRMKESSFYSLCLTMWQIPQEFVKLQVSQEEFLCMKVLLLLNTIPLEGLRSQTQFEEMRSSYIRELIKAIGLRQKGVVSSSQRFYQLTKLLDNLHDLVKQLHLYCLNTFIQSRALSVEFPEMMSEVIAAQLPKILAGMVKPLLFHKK
The assay is described as follows: Radioligand binding assay with progesterone receptor cytosol (similar protocol). The source says:
Methods for Radioligand Binding Studies with Human Glucocorticoid and Progesterone Receptor Cytosol
A similar protocol was employed to measure affinity of the compounds of the present invention for progesterone receptor (PR).

One may read the IC50 as the midpoint of a concentration-inhibition curve. Low values mean greater potency in that assay, high ones weaker potency in that assay. “(1-methoxy-6-(4-methylphenyl)-6H-dibenzo(b,d)pyran-8-yl)methanesulfonamide [Example 76]”: in assay [1], the “GR BINDING (% Inhibition @ 1.7 μM)” value was found to be 89.7%. Moreover, in assay [2], the IC50 came out at 670 nM.

As to “(1-methoxy-6-(3-cyanophenyl)-6H-dibenzo(b,d)pyran-8-yl)methanesulfonamide [Example 50]”, the “GR BINDING (% Inhibition @ 1.7 μM)” value in assay [1] was 93.7%. The same molecule had a half-inhibitory concentration (IC50) in assay [2] of 1050 nM.

“(1,2-methylenedioxy-6-phenyl-6H-dibenzo(b,d)pyran-8-yl)methanesulfonamide [Example 66]”: in assay [1], the “GR BINDING (% Inhibition @ 1.7 μM)” value is recorded as 91.6%. In addition, the IC50 in assay [2] is 222 nM.

As to “(1-methoxy-6-(4-chlorophenyl)-6H-dibenzo(b,d)pyran-8-yl)methanesulfonamide [Example 61]”, the “GR BINDING (% Inhibition @ 1.7 μM)” value in assay [1] is given as 91.3%. In assay [2], this molecule showed a 50% inhibitory concentration (IC50) of 3990 nM.

Take `COc1cccc2c1-c1ccc(NS(C)(=O)=O)cc1C(c1ccc(Oc3ccc(Br)cc3)cc1)O2` (centres unmarked) [Example 153]: the “GR BINDING (% Inhibition @ 1.7 μM)” value in assay [1] is 92.8%. Also, the IC50 in assay [2] was > 10000 nM.

One may read the inhibition as the percentage by which the read-out fell short of the control. With `COc1cccc2c1-c1ccc(NS(C)(=O)=O)cc1C(c1cccc(C)c1)O2` (centres unmarked) [Example 86, N-[1-methoxy-6-(3-methylphenyl)-6H-benzo[c]chromen-8-yl]methanesulfonamide], the inhibition at 1.7 µM in assay [1] came out at 90.4%. For the same molecule, in assay [2], the IC50 stood at 77 nM.

Regarding `C=CCOc1cccc(C2Oc3cccc(OC)c3-c3ccc(NS(C)(=O)=O)cc32)c1` (centres unmarked) [Example 33, (1-methoxy-6-(3-allyloxy)phenyl-6H-dibenzo(b,d)pyran-8-yl)-methanesulfonamide], the inhibition at 1.7 µM in assay [1] is 87.5%. This molecule also registered an IC50 in assay [2] of 5490 nM.

Take “(1-methoxy-6-(4-carboethoxyphenyl)-6H-dibenzo(b,d)pyran-8-yl)methanesulfonamide [Example 52]”: the “GR BINDING (% Inhibition @ 1.7 μM)” value in assay [1] was found to be 92.2%. For the same molecule, the IC50 in assay [2] is > 10000 nM.

For the molecule “(1-methoxy-6-cyclohexyl-6H-dibenzo(b,d)pyran-8-yl)methanesulfonamide [Example 55]”, in assay [1], the “GR BINDING (% Inhibition @ 1.7 μM)” value is 93.4%. This molecule had an IC50 in assay [2] of 1000 nM.

As for “(1-methoxy-4-methyl-6-phenyl-6H-dibenzo(b,d)pyran-8-yl)methanesulfonamide [Example 68]”, the “GR BINDING (% Inhibition @ 1.7 μM)” value in assay [1] was 88.1%. Besides, the IC50 in assay [2] was > 10000 nM.

For “(1-(2-propynyl)oxy-6-phenyl-6H-dibenzo(b,d)pyran-8-yl)methanesulfonamide [Example 45]”, the “GR BINDING (% Inhibition @ 1.7 μM)” value in assay [1] was 91.2%. Also, the IC50 in assay [2] was determined as 2160 nM.

Turning to `CS(=O)(=O)Nc1ccc2c(c1)C(c1ccccc1)Oc1cccc(OC(F)F)c1-2` (centres unmarked) [Example 25, N-(1-difluoromethoxy-6-phenyl-6H-dibenzo[b,d]pyran-8-yl)methanesulfonamide], the inhibition at 1.7 µM in assay [1] turned out to be 92.7%. In addition, in assay [2], the IC50 turned out to be 370 nM.

For “(1-methoxy-6-(inden-3-yl)-6H-dibenzo(b,d)pyran-8-yl)methanesulfonamide [Example 74]”, the “GR BINDING (% Inhibition @ 1.7 μM)” value in assay [1] was found to be 86.7%. Also, in assay [2], the IC50 worked out at 970 nM.

With “(1-methoxy-6-(2-bromoprop-2-en-1-yl)-6H-dibenzo(b,d)pyran-8-yl)methanesulfonamide [Example 71]”, the “GR BINDING (% Inhibition @ 1.7 μM)” value in assay [1] was found to be 89.5%. Moreover, the IC50 in assay [2] was 340 nM.

As to “(1-difluoromethoxy-6-allyl-6H-dibenzo(b,d)pyran-8-yl)-methanesulfonamide [Example 31]”, in assay [1], the “GR BINDING (% Inhibition @ 1.7 μM)” value is 90.0%. For the same molecule, the 50% inhibitory concentration (IC50) in assay [2] came out at 79 nM.

For `COc1cccc2c1-c1ccc(NS(C)(=O)=O)cc1C(c1cccc(Oc3ccc(C(C)=O)cc3)c1)O2` (centres unmarked) [Example 140, N-{6-[3-(4-acetylphenoxy)phenyl]-1-methoxy-6H-benzo[c]chromen-8-yl}methanesulfonamide], in assay [1], the inhibition at 1.7 µM was determined as 84.1%.

As for `CCS(=O)(=O)Nc1ccc2c(c1)C(c1ccccc1)Oc1cccc(OC)c1-2` (centres unmarked) [Example 7, (1-methoxy-6-phenyl-6H-dibenzo(b,d)pyran-8-yl)ethanesulfonamide], in assay [1], the “GR BINDING (% Inhibition @ 1.7 μM)” value was 90.6%.

In the case of `COc1cccc2c1-c1ccc(CCN)cc1C(c1ccccc1)O2` (centres unmarked) [Example 19, (1-methoxy-6-phenyl-6H-dibenzo(b,d)pyran-8-yl)ethylamine], the inhibition at 1.7 µM in assay [1] is 66%.

For `COCCNC(=O)c1cccc(C2Oc3cccc(OC)c3-c3ccc(NS(C)(=O)=O)cc32)c1` (centres unmarked) [Example 64, (1-methoxy-6-(3-(2-methoxyethyl)aminocarbonyl)phenyl-6H-dibenzo(b,d)pyran-8-yl)-methanesulfonamide], in assay [1], the “GR BINDING (% Inhibition @ 1.7 μM)” value was found to be 44.3%.

In the case of `COc1cccc2c1-c1ccc(NS(C)(=O)=O)cc1[C@@H](c1ccccc1)O2` [Example 23, 6R-(1-methoxy-6-phenyl-6H-dibenzo(b,d)pyran-8-yl)methanesulfonamide], the “GR BINDING (% Inhibition @ 1.7 μM)” value in assay [1] is 36.9%.

On to `CS(=O)(=O)Nc1ccc2c(c1)C(c1cccc(CCCC(=O)O)c1)Oc1cccc(OC(F)F)c1-2` (centres unmarked) [Example 121, 4-(3-{1-(difluoromethoxy)-8-[(methylsulfonyl)amino]-6H-benzo[c]chromen-6-yl}phenyl)butanoic acid], for which the inhibition at 1.7 µM in assay [1] is 76.6%.

Regarding `CS(=O)(=O)Nc1ccc2c(c1)C(c1ccccc1)Oc1cccc(CO)c1-2` (centres unmarked) [Example 104, N-[1-(hydroxymethyl)-6-phenyl-6H-benzo[c]chromen-8-yl]methanesulfonamide], the inhibition at 1.7 µM in assay [1] worked out at 86.8%.

Take `COc1cccc2c1-c1ccc(NS(C)(=O)=O)cc1C(c1cccc(CCCCC#N)c1)O2` (centres unmarked) [Example 113, N-{6-[3-(4-cyanobutyl)phenyl]-1-methoxy-6H-benzo[c]chromen-8-yl}methanesulfonamide]: the inhibition at 1.7 µM in assay [1] was found to be 87.7%.

As for `CCOC(=O)C(C)CCCc1cccc(C2Oc3cccc(OC(F)F)c3-c3ccc(NS(C)(=O)=O)cc32)c1` (centres unmarked) [Example 135, ethyl 5-(3-{1-(difluoromethoxy)-8-[(methylsulfonyl)amino]-6H-benzo[c]chromen-6-yl}phenyl)-2-methylpentanoate], the inhibition at 1.7 µM in assay [1] was found to be 83.7%.

As to `CCOC(=O)/C=C/COc1cccc(C2Oc3cccc(OC)c3-c3ccc(NS(C)(=O)=O)cc32)c1` (centres unmarked) [Example 94, ethyl (2E)-4-(3-{1-methoxy-8-[(methylsulfonyl)amino]-6H-benzo[c]chromen-6-yl}phenoxy)-2-butenoate], in assay [1], the inhibition at 1.7 µM is 79.6%.

As to `COc1cccc2c1-c1ccc(NS(C)(=O)=O)cc1C(c1ccc(/C=C/c3ccccc3)s1)O2` (centres unmarked) [Example 101, N-(1-methoxy-6-{5-[(E)-2-phenylethenyl]-2-thienyl}-6H-benzo[c]chromen-8-yl)methanesulfonamide], the inhibition at 1.7 µM in assay [1] stood at 91.3%.

On to `COc1cccc2c1-c1ccc(NC(=O)C(C)C)cc1C(c1ccccc1)O2` (centres unmarked) [Example 14], for which the “GR BINDING (% Inhibition @ 1.7 μM)” value in assay [1] was 85.1%.

Take `COc1cccc2c1-c1ccc(NS(C)(=O)=O)cc1C(c1cccc(CCCC(=O)O)c1)O2` (centres unmarked) [Example 151, 4-(3-{1-methoxy-8-[(methylsulfonyl)amino]-6H-benzo[c]chromen-6-yl}phenyl)butanoic acid]: in assay [1], the inhibition at 1.7 µM was 69.5%.

For `COc1cccc2c1-c1ccc(NC(=O)C(F)(F)F)cc1C(c1ccccc1)O2` (centres unmarked) [Example 22, (1-methoxy-6-phenyl-6H-dibenzo(b,d)pyran-8-yl)trifluoroacetamide], the inhibition at 1.7 µM in assay [1] is 87.9%.

Source of the values: patent US6593480B2 (Abbott Laboratories, priority 1999, dated 2003).
